# Test results as given in article PMC10746543, “Design principles for cyclin K molecular glue degraders” (Nature Chemical Biology, 2023).
# Values joined by “and” are separate entries in the source; they are usually repeats but may differ in a detail not shown here. Identical values can stand only once. Like-named read-outs stand apart in the source and are kept apart here.
# How the values were obtained:
# [1] = biological target: T1, CDK12–cyclin K and DDB1 (Homo sapiens, UniProt Q16531+Q9NYV4, K965R); assay: TR-FRET ternary complex formation assay (compound titration); type: binding; conditions: for TR-FRET signal at compound concentration: replicate titrations
# T1 construct: His6–CDK12 (a.a. 713–1,052); full-length or beta-propeller B domain deletion (ΔBPB: a.a. 396–705 deleted) constructs of His6–DDB1ΔBPB, StrepII–Avi–DDB1, or His6–Spy–DDB1; made in house; host or cells: Trichoplusia ni High Five insect cells (baculovirus)
# Procedure, shortened: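 TR-FRET ratio 520/490 nm; 70 μs delay before read to suppress background.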
# [2] = tested on: HEK293T cells; assay: Drug sensitivity assay (CellTiter-Glo viability) with or without MLN4924 pretreatment; type: cell-based, human; conditions: Supplementary Table 2; for EC50: Homo sapiens, HEK-293T, HEK293T viability, 72 h, compound alone, read-out: Cellular assays EC50; for Toxicity rescue: MLN4924-mediated cytotoxicity rescue, 10 µM used where n.d.
# Procedure, shortened: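 Luminescent ATP read-out (CellTiter-Glo) after 3 days of drug exposure, normalised to DMSO controls. Cells were HEK293T–Cas9, pretreated with 100 nM MLN4924 or DMSO for 2 h before drug dispensing.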
# [3] = tested on: cyclin K–eGFP degradation reporter; assay: Cyclin K reporter stability analysis (dual-color cyclin K–eGFP reporter); type: cell-based, human
# Procedure, shortened: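 Readout was the eGFP-to-mCherry geometric-mean ratio by flow cytometry, normalized to three DMSO controls, after 5 h drug exposure. Cells used were HEK293T–Cas9 expressing the dual-colour cyclin K–eGFP degradation reporter.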
# [4] = in vitro complex formation, 50 nM CDK12–cyclin K, 100 nM DDB1, text and figures, read-out: TR-FRET EC50
# [5] = source data sheet correlations, read-out: TR-FRET EC50
# [6] = source data sheet correlations, read-out: DC50
# [7] = compound concentration 79.2001 nM
# [8] = compound concentration 158.4 nM
# [9] = compound concentration 309.6 nM
# [10] = compound concentration 626.401 nM
# [11] = compound concentration 1252.8 nM
# [12] = compound concentration 9936.01 nM
# [13] = compound concentration 20016 nM
# [14] = Supplementary Table 2, HEK293T cycK-eGFP reporter, 5 h, read-out: Cellular assays DC50
# [15] = sheet MOESM7, read-out: log TR-FRET EC50 (converted)
# T1 sequence (Q9NYV4 713-1052 K965R): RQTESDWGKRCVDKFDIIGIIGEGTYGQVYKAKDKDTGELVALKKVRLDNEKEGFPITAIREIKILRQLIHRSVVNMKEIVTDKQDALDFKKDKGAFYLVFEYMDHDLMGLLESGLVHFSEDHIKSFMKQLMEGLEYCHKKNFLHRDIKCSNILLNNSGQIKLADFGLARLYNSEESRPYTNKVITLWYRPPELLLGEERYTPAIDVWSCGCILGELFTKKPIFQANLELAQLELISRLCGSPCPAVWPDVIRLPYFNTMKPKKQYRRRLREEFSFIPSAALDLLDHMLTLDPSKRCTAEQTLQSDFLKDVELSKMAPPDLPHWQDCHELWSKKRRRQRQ
# T1 sequence (O75909 1-267 partner): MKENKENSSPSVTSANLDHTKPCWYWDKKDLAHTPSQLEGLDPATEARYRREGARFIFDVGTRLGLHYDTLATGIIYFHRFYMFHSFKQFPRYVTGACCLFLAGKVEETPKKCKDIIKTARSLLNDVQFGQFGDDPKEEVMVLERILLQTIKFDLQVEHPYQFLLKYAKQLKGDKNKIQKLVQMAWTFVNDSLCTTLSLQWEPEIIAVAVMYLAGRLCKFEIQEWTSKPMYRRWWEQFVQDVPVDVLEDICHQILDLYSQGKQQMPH
# T1 sequence (Q16531 whole entry): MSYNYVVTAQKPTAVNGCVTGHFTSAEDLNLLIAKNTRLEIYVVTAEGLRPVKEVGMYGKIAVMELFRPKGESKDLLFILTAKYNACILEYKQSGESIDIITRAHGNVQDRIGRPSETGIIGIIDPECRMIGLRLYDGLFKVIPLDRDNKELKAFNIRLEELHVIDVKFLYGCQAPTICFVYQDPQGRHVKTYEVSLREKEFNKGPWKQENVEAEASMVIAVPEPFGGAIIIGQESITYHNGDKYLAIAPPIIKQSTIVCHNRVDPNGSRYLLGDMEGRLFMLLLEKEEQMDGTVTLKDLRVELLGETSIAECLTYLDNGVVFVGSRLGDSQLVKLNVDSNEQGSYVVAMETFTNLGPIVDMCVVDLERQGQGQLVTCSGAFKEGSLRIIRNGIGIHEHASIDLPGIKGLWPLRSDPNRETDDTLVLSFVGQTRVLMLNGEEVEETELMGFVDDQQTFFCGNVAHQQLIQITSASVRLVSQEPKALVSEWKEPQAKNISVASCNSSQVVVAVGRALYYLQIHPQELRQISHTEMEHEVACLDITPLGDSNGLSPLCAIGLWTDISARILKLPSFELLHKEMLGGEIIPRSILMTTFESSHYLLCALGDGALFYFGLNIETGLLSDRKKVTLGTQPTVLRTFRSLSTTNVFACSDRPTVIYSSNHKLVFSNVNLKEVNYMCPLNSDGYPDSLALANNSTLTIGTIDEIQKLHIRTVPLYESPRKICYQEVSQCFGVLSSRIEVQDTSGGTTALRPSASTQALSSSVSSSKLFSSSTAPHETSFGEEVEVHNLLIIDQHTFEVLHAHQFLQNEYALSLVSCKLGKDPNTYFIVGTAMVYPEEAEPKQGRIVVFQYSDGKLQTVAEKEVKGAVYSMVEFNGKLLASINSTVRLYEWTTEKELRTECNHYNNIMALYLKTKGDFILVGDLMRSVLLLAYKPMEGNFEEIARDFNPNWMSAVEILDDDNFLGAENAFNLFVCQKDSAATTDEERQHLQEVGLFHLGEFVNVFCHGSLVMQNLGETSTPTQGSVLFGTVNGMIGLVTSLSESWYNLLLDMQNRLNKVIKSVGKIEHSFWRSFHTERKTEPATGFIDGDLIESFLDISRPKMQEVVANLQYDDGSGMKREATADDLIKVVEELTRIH
structure (smiles),measurement,setting,value
Cc1nn(C)c(CNc2nc(NCc3ccc(-c4ccccn4)cc3)c3ncn(C(C)C)c3n2)c1S(N)(=O)=O [DS59],TR-FRET signal at compound concentration 4.68 nM,"[1]; compound concentration 4.68 nM, raw titration data",0.1939 and 0.1953
same,TR-FRET signal at compound concentration 21.6 nM,"[1]; compound concentration 21.6 nM, raw titration data",0.4174 and 0.4335
same,TR-FRET signal at compound concentration 36 nM,"[1]; compound concentration 36 nM, raw titration data",0.8682 and 0.9198
same,TR-FRET signal at compound concentration 79.2001 nM,"[1]; compound concentration 79.2001 nM, raw titration data",1.565 and 1.549
same,TR-FRET signal at compound concentration 158.4 nM,"[1]; compound concentration 158.4 nM, raw titration data",2.139 and 2.165
same,TR-FRET signal at compound concentration 309.6 nM,"[1]; compound concentration 309.6 nM, raw titration data",2.574 and 2.56
same,TR-FRET signal at compound concentration 626.401 nM,"[1]; compound concentration 626.401 nM, raw titration data",2.883 and 2.886
same,TR-FRET signal at compound concentration 1252.8 nM,"[1]; compound concentration 1252.8 nM, raw titration data",3.135 and 3.111
same,TR-FRET signal at compound concentration 2448 nM,"[1]; compound concentration 2448 nM, raw titration data",3.2283 and 3.26
same,TR-FRET signal at compound concentration 9936.01 nM,"[1]; compound concentration 9936.01 nM, raw titration data",3.148 and 3.114
same,TR-FRET signal at compound concentration 20016 nM,"[1]; compound concentration 20016 nM, raw titration data",2.946 and 3.018
same,EC50,[1]; [4],101 ± 5 nM
same,EC50,[1]; [5],101 nM
same,EC50,[2],1420 nM
same,Toxicity rescue,[2],230%
same,DC50,[3]; [6],566 nM
CC[C@H](CO)Nc1nc(NCCCc2ccncc2)c2ncn(C(C)C)c2n1 [DS27],TR-FRET signal at compound concentration,[1]; compound concentration 4.68 nM,0.135 and 0.1336
same,TR-FRET signal at compound concentration,[1]; compound concentration 21.6 nM,0.1436 and 0.1394
same,TR-FRET signal at compound concentration,[1]; compound concentration 36 nM,0.1546 and 0.1561
same,TR-FRET signal at compound concentration,[1]; [7],0.1838 and 0.187
same,TR-FRET signal at compound concentration,[1]; [8],0.2226 and 0.2249
same,TR-FRET signal at compound concentration,[1]; [9],0.2777 and 0.285
same,TR-FRET signal at compound concentration,[1]; [10],0.3467 and 0.3568
same,TR-FRET signal at compound concentration,[1]; [11],0.4111 and 0.4466
same,TR-FRET signal at compound concentration,[1]; compound concentration 2448 nM,0.4906 and 0.4799
same,TR-FRET signal at compound concentration,[1]; [12],0.5278 and 0.4844
same,TR-FRET signal at compound concentration,[1]; [13],0.4733 and 0.5319
same,EC50,[1]; [4],456 ± 34 nM
same,EC50,[2],> 10000 nM
same,Toxicity rescue,[2],0%
same,DC50,[3]; [14],> 10000 nM
CC[C@H](CO)Nc1nc(NCCCc2ccc(C)c(C)c2)c2ncn(C(C)C)c2n1 [DS66],TR-FRET signal at compound concentration,[1]; compound concentration 0.468 nM,0.2923 and 0.3076 and 0.198 and 0.2218
same,TR-FRET signal at compound concentration,[1]; compound concentration 2.16 nM,0.3989 and 0.4255 and 0.2838 and 0.3021
same,TR-FRET signal at compound concentration,[1]; compound concentration 3.6 nM,0.6137 and 0.6924 and 0.4704 and 0.4752
same,TR-FRET signal at compound concentration,[1]; compound concentration 7.92001 nM,1.224 and 1.234 and 0.9118 and 0.9562
same,TR-FRET signal at compound concentration,[1]; compound concentration 15.84 nM,2 and 2.2 and 1.736 and 1.809
same,TR-FRET signal at compound concentration,[1]; compound concentration 30.96 nM,3.161 and 3.3799 and 3.037 and 2.9897
same,TR-FRET signal at compound concentration,[1]; compound concentration 62.6401 nM,3.7362 and 4.009 and 3.696 and 3.655
same,TR-FRET signal at compound concentration,[1]; compound concentration 125.28 nM,3.905 and 4.159 and 3.906 and 3.9109
same,TR-FRET signal at compound concentration,[1]; compound concentration 244.8 nM,4.008 and 4.194 and 3.9625 and 4.012
same,TR-FRET signal at compound concentration,[1]; compound concentration 993.601 nM,4.134 and 4.267 and 4.125 and 4.115
same,TR-FRET signal at compound concentration,[1]; compound concentration 2001.6 nM,4.074 and 4.31 and 4.121 and 4.142
same,EC50,[1]; [4],18 ± 1 nM
same,EC50,[1]; [15],17.7 nM
same,EC50,[1]; [5],17.7 nM
same,EC50,[2],> 10000 nM
same,Toxicity rescue,[2],0%
same,DC50,[3]; [6],88 nM
CC[C@H](CO)Nc1nc(NCCC2CCCCCCC2)c2ncn(C(C)C)c2n1 [DS38],EC50,"[1]; Supplementary Table 2, read-out: TR-FRET EC50 TR-FRET",5740 nM
same,"TR-FRET signal, individual replicate",[1]; compound concentration 4.68 nM,0.1996 and 0.2467
same,"TR-FRET signal, individual replicate",[1]; compound concentration 21.6 nM,0.2088 and 0.2442
same,"TR-FRET signal, individual replicate",[1]; compound concentration 36 nM,0.2151 and 0.2401
same,"TR-FRET signal, individual replicate",[1]; [7],0.2234 and 0.2572
same,"TR-FRET signal, individual replicate",[1]; [8],0.237 and 0.2667
same,"TR-FRET signal, individual replicate",[1]; [9],0.2597 and 0.2826
same,"TR-FRET signal, individual replicate",[1]; [10],0.3077 and 0.3432
same,"TR-FRET signal, individual replicate",[1]; [11],0.3992 and 0.4242
same,"TR-FRET signal, individual replicate",[1]; compound concentration 2448 nM,0.5328 and 0.5897
same,"TR-FRET signal, individual replicate",[1]; [12],1.042 and 1.049
same,"TR-FRET signal, individual replicate",[1]; [13],1.225 and 1.271
same,EC50,[1]; [15],5740 nM
same,EC50,[2],> 10000 nM
same,Toxicity rescue,[2],0%
same,DC50,[3]; [14],> 10000 nM
CC[C@H](CO)Nc1nc(NCc2ccc3cc(O)ccc3c2)c2ncn(C(C)C)c2n1 [DS14],TR-FRET signal,[1]; compound concentration 4.68 nM,0.1364 and 0.1548
same,TR-FRET signal,[1]; compound concentration 21.6 nM,0.1403 and 0.1585
same,TR-FRET signal,[1]; compound concentration 36 nM,0.1464 and 0.1703
same,TR-FRET signal,[1]; [7],0.164 and 0.1861
same,TR-FRET signal,[1]; [8],0.1899 and 0.214
same,TR-FRET signal,[1]; [9],0.2284 and 0.2573
same,TR-FRET signal,[1]; [10],0.2863 and 0.3257
same,TR-FRET signal,[1]; [11],0.3495 and 0.4048
same,TR-FRET signal,[1]; compound concentration 2448 nM,0.4136 and 0.4783
same,TR-FRET signal,[1]; [12],0.5447 and 0.6287
same,TR-FRET signal,[1]; [13],0.6134 and 0.6953
same,EC50,[1]; [4],2360 ± 777 nM
same,EC50,[2],> 10000 nM
same,Toxicity rescue,[2],0%
same,DC50,[3]; [14],> 10000 nM
